Results reported in US5756301A, “Endogenous taxol-like substance in human serum, monoclonal antibodies directed thereto and methods of assaying therefor” (The Trustees of Columbia University in the City of New York, priority 1993, dated 1998).
Entries after “also recorded” stand apart in the source; their conditions may differ. Where two headings read alike, the source gives them in different places.

Tests used:
[1] = tested on: rabbit anti-taxol antiserum; test: RIA: inhibition of binding of rabbit anti-taxol antiserum to [3H]taxol; settings: for Affinity of rabbit antibodies (in words): [3H]taxol
Procedure: (§1) Bound ligand was separated from free by the addition of 100 ul of a 2.5% dextran-coated charcoal solution in RIA buffer, incubation for 3 min at 4° C. and centrifugation in an Eppendorf centrifuge for 2 min.

[2] = tested on: 29B7B3C; test: Competitive ELISA, inhibition of binding of 29B7B3C to taxol-RSA; set-up: species or system mouse
Procedure: (§2) Spleen cells were fused with nonsecreting myeloma cells P3 ×63-Ag8.653 (13), according to the method of Sharon et al. (14). […] Clones positive by competitive ELISA were subcloned twice by limiting dilution. Ascites were obtained by injecting 10^6 to 10^7 cells i.p. into BALB/c mice that had been primed with IFA i.p. 5 days before.
(§3) The wells were washed with PBS-T-20 three times and blocked with 200 ul of PBS, containing 1% fetal calf serum, for 1 hour at 37° C. […] After washing four times with PBS-T-20, bound antibodies were detected with 100 ul of 1/3000 dilution of peroxidase-labeled goat anti-mouse IgG+IgM in PBS-T-20 for 1 hour at 37° C. Color was developed and absorbance was measured as described above.

[3] = tested on: 69E4A8E; test: Competitive ELISA, inhibition of binding of 69E4A8E to taxol-RSA; set-up: species or system mouse
Procedure: as §2, §3

[4] = tested on: antibodies specific for taxol (one rabbit antiserum and two monoclonal antibodies); test: Binding to all of the antibodies (rabbit antiserum, 69E4A8E, 29B7B3C); set-up: species or system rabbit; mouse; settings: 69E4A8E and 29B7B3C
Procedure: Polystyrene microplates were coated with 100 ul of taxol-RSA (250ng/ml) in 0.1 M sodium bicarbonate, pH=9.3, overnight at 4° C. The wells were washed with PBS-T-20 three times and blocked with 200 ul of PBS, containing 1% fetal calf serum, for 1 hour at 37° C. […] After washing four times with PBS-T-20, bound antibodies were detected with 100 ul of 1/3000 dilution of peroxidase-labeled goat anti-mouse IgG+IgM in PBS-T-20 for 1 hour at 37° C. Color was developed and absorbance was measured as described above.
as §1

[5] = read-out: Peak taxol level in plasma; 200 to 250 mg/m^2 infusion over 24 hours; cited from earlier work
[6] = tested on: ovarian and breast cancer and melanoma; settings: clinical trials; cited from earlier work
[7] = clinical trials; cited from earlier work
[8] = tested on: microtubules / tubulin; settings: cited from earlier work
[9] = tested on: tumor; settings: cited from earlier work
[10] = tested on: KB cells; settings: cited from earlier work
[11] = relative to taxol = 1, data from reference 10

## CC(=O)O[C@H]1C(=O)[C@@]2(C)[C@H]([C@H](OC(=O)c3ccccc3)[C@]3(O)C[C@H](OC(=O)[C@H](O)[C@@H](NC(=O)c4ccccc4)c4ccccc4)C(C)=C1C3(C)C)[C@]1(OC(C)=O)CO[C@@H]1C[C@@H]2O [Taxol]
[1]; RIA
  Affinity of rabbit antibodies (in words): almost equal affinity
[2]
  Binding affinity of 29B7B3C (in words): higher binding affinities
[2]; ELISA, 29B7B3C
  IC50: ~100 nM
[3]
  Binding affinity / recognition by 69E4A8E (in words): higher binding affinities
[3]; ELISA, 69E4A8E
  IC50: ~100 nM
[4]
  Binding by all antibodies (in words): bind taxol and active derivatives well
[5]
  Cmax: > 600 nM
[6]
  Clinical efficacy: affective in the treatment of ovarian (5, 6) and breast cancer (7) and melanoma (8)
[7]
  Side effects: neutropenia, hypersensitivity reactions mucositis, neurological and possible cardiac toxicity
[8]
  Effect on microtubule assembly / tubulin polymerization: promote and stabilize microtubule assembly and inhibit disassembly to tubulin
[9]
  Antitumor activity: shown to have antitumor activity

## CC(=O)O[C@H]1C(=O)[C@]2(C)[C@H](O)C[C@H]3OC[C@@]3(OC(C)=O)[C@H]2[C@H](OC(=O)c2ccccc2)[C@]2(O)C[C@H](OC(=O)[C@H](O)[C@@H](NC(=O)c3ccccc3)c3ccccc3)C(C)=C1C2(C)C [7-Epitaxol, 7-epitaxol]
[2]; competitive ELISA
  Binding affinity of 29B7B3C (in words): higher binding affinities
[3]; competitive ELISA
  Binding affinity / recognition by 69E4A8E (in words): higher binding affinities

## COc1cc([C@@H]2c3cc4c(cc3[C@H](O)[C@H]3COC(=O)[C@H]23)OCO4)cc(OC)c1OC [podophyllotoxin]
[8]
  Effect on microtubule assembly / tubulin polymerization: inhibit tubulin polymerization

## CC(=O)OC[C@@]1(O)[C@H]2[C@H](OC(=O)c3ccccc3)[C@]3(O)C[C@H](OC(=O)[C@H](O)[C@@H](NC(=O)c4ccccc4)c4ccccc4)C(C)=C([C@@H](OC(C)=O)C(=O)[C@]2(C)[C@@H](O)C[C@@H]1O)C3(C)C [20-acetoxy-4-deacetyl-5-epi-20,0-secotaxol]
[1]; RIA, lower than taxol
  Affinity lower than taxol (orders of magnitude): about 3 orders of magnitude
[10]; [11]
  Relative IC50, cytotoxicity (KB cells): > 100,000

## CC(=O)O[C@@]12CO[C@@H]1C[C@H](O)[C@@]1(C)C(=O)[C@H](O)C3=C(C)[C@@H](OC(=O)[C@H](O)[C@@H](NC(=O)OC(C)(C)C)c4ccccc4)C[C@@](O)([C@@H](OC(=O)c4ccccc4)[C@H]21)C3(C)C [Taxotere]
[1]; RIA
  Affinity of rabbit antibodies (in words): inability of the rabbit serum and 69E4A8E to recognize taxotere
[1]; RIA, lower affinity than taxol
  Affinity lower than taxol (fold): 100 fold
[2]; competitive ELISA
  Binding affinity of 29B7B3C (in words): binds taxotere as well as it does taxol
[3]; competitive ELISA
  Binding affinity / recognition by 69E4A8E (in words): recognized poorly; also recorded: inability of the rabbit serum and 69E4A8E to recognize taxotere

## CC[Si](CC)(CC)O[C@@H](C(=O)O[C@H]1C[C@@]2(O)[C@@H](OC(=O)c3ccccc3)[C@@H]3[C@]4(OC(C)=O)CO[C@@H]4C[C@H](O)[C@@]3(C)C(=O)[C@H](OC(C)=O)C(=C1C)C2(C)C)[C@@H](NC(=O)c1ccccc1)c1ccccc1 [2'-(Triethylsiyl) taxol, 2'-(triethylsilyl)taxol]
[10]; human
  Relative IC50, cytotoxicity (KB cells): 30,000

## CC(=O)O[C@H]1C(=O)[C@@]2(C)[C@H]([C@H](OC(=O)c3ccccc3)[C@]3(O)C[C@H](O)C(C)=C1C3(C)C)[C@]1(OC(C)=O)CO[C@@H]1C[C@@H]2O [Baccatin III, baccatin III]
[1]
  Affinity lower than taxol (orders of magnitude): about 3 orders of magnitude
[10]; human
  Relative IC50, cytotoxicity (KB cells): 1,700

## C/C=C(\C)C(=O)N[C@@H](c1ccccc1)[C@@H](O)C(=O)O[C@H]1C[C@@]2(O)[C@@H](OC(=O)c3ccccc3)[C@@H]3[C@]4(OC(C)=O)CO[C@@H]4C[C@H](O)[C@@]3(C)C(=O)[C@H](OC(C)=O)C(=C1C)C2(C)C [Cephalomannine, cephalomannine]
[1]; RIA
  Affinity of rabbit antibodies (in words): almost equal affinity
[2]; competitive ELISA
  Binding affinity of 29B7B3C (in words): higher binding affinities
[10]; [11]
  Relative IC50, cytotoxicity (KB cells): 3.2

## CC(=O)O[C@@]12CO[C@@H]1C[C@H](O)[C@@]1(C)C(=O)[C@H](O)C3=C(C)[C@@H](O)C[C@@](O)([C@@H](OC(=O)c4ccccc4)[C@H]21)C3(C)C [10-deacetylbaccatin III]
[10]; human
  Relative IC50, cytotoxicity (KB cells): 400

## CC[C@]1(O)C[C@@H]2CN(CCc3c([nH]c4ccccc34)[C@@](C(=O)OC)(c3cc4c(cc3OC)N(C)[C@H]3[C@@](O)(C(=O)OC)[C@H](OC(C)=O)[C@]5(CC)C=CCN6CC[C@]43[C@@H]65)C2)C1 [vinblastine]
[8]
  Effect on microtubule assembly / tubulin polymerization: inhibit tubulin polymerization
